According to patent publication US9796679B2, “Type 4 prepilin peptidase inhibitors and methods of use” (priority 2014, dated 2017):

Target: T1, TcpJ (Vibrio cholerae serotype O1, UniProt A5F385)
T1 construct: made in house; host or cells: E. coli JM109 carrying pCL9 (total membrane fraction)
T1 sequence (A5F385 1-253): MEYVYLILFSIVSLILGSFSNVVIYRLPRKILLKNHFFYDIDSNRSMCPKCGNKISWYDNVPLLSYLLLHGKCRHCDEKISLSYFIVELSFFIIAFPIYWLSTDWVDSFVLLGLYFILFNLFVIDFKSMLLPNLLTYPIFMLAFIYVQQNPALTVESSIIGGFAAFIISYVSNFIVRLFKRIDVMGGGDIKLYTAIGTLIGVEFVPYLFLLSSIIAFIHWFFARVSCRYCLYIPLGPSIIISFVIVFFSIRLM
Assay: In vitro TcpA prepilin cleavage assay with inhibitors
Type: biochemical
Details: compared to compounds where R is methyl
Protocol: By way of illustration, the effect of inhibitors on the peptidase activity of TcpJ can be determined by incubating the inhibitor with an amount of membrane preparation known to contain 1 unit of activity of TcpJ for 30 minutes at room temperature. The TcpJ/inhibitor mixture is then tested for peptidase activity. Amounts of cleaved TcpA prepilin can be quantitated and applied to the formula: % cleavage=(amount of cleaved TcpA in inhibition assay/amount of cleaved TcpA in no inhibitor control assay)×100.
Membrane preparations were prepared according to a modified cell fractionation protocol (Pfau (1998) J. Bact. 180(17):4724-33). Overnight cultures were placed on ice for 20 minutes then pelleted at 5000×g for 10 minutes. The cell pellet was resuspended in 1 ml 200 mM Tris pH 8.0 to which 1 ml 50 mM Tris pH 8.0, 1 M sucrose, 2 ml water, 20 μl 0.5 M EDTA, and 20 μl lysozyme (10 mg/ml) were added. The cell suspension was allowed to incubate on ice for 30 minutes. Then, 100 μl 1 M MgSO4 was added and the suspension was pelleted at 5000×g for 10 minutes. […]
A membrane preparation from the E. coli strain K38 p3Z-A, pGP1-2, which was determined to contain 0.2 μg TcpA prepilin/μl, was the source of prepilin in the in vitro TcpJ proteases assay instead of purified prepilin. […]

With `Nc1cc[n+](Cc2ccc(-c3ccc(C[n+]4ccc(N)c5ccccc54)cc3)cc2)c2ccccc12` [TC-7] the IC50 value was “lower IC50 value compared to compounds where R is methyl”.
